Assays:
[1] = system: porcine islets; experiment: Porcine islet isolation; type: cell-based, pig
[2] = system: Brown Norway rats; experiment: Argon laser-induced choroidal neovascularization (ChNV), intravitreal; type: in vivo, rat
[3] = system: Lewis rats; experiment: Endotoxin-induced uveitis (EIU), duration of action after subconjunctival injection; type: in vivo, rat
[4] = system: THP-1 cells; experiment: LPS-induced cytokine release; type: cell-based; conditions: Fig. 27 A-C
[5] = Ocular pharmacokinetics after single and repeated subconjunctival administration; type: in vivo, rabbit
[6] = 20 μg/eye, 1 day before induction
[7] = 20 μg/eye, 2 days before induction
[8] = 20 μg/eye, 7 days before induction
[9] = 20 μg/eye, 14 days before induction
[10] = 20 μg/eye, 21 days before induction
[11] = 20 μg/eye, 28 days before induction

With “NH2-DQSRPVQPFLNLTTPRKPRPPRRRQRRKKRG-COOH (H-DQSRPVQPFLNLTTPRKPRPPRRRQRRKKRG-OH; also: D-amino acids (positions not given here)) [XG-102]” the “isolations with OCR/DNA above cut-off, successfully transplanted into NHPs” value [1] was 6/6, the “relative c-fos gene expression” value ([1]; 10 μM) was “감소시키고” and the “JNK activation during isolation” value ([1]; 10 μM in pancreas and isolation solutions) was “차단하고”. For the same substance, the “viability of freshly isolated islets (OCR/DNA, ATP/protein)” value ([1]; 10 μM vs paired untreated control) was “통계적으로 현저하고 중요한 영향을 가짐”, the “mean score of fluorescein leakage (mean ± SD)” value (from here on “mean score … (mean ± SD)”) ([2]; 300 μg/ml IVT D0,D7, day 14) was 2.4 ± 0.9 and the “mean score … (mean ± SD)” value ([2]; 300 μg/ml IVT D0,D7, day 21) was 2.4 ± 0.8. The “% spots with score 0” value ([2]; 300 μg/ml, day 14) was 7%, the “% spots with score 1” value ([2]; 300 μg/ml, day 14) was 9% and the “% spots with score 2” value ([2]; 300 μg/ml, day 14) was 18%. For the same substance, the “% spots with score 3” value ([2]; 300 μg/ml, day 14) was 66%, the “reduction % vs vehicle” value ([2]; 300 μg/ml, day 14, p<0.05) was 17% and the “% spots with score 0” value ([2]; 300 μg/ml, day 21) was 5%. For the same substance, the “% spots with score 1” value ([2]; 300 μg/ml, day 21) was 9%, the “% spots with score 2” value ([2]; 300 μg/ml, day 21) was 32% and the “% spots with score 3” value ([2]; 300 μg/ml, day 21) was 55%. For the same substance, the “reduction % vs vehicle” value ([2]; 300 μg/ml, day 21) was -9%, the “mean score … (mean ± SD)” value ([2]; 3000 μg/ml IVT D0,D7, day 14) was 1.7 ± 0.7 and the “mean score … (mean ± SD)” value ([2]; 3000 μg/ml IVT D0,D7, day 21) was 2.3 ± 0.7. For the same substance, the “% spots with score 0” value ([2]; 3000 μg/ml, day 14) was 0%, the “% spots with score 1” value ([2]; 3000 μg/ml, day 14) was 44% and the “% spots with score 2” value ([2]; 3000 μg/ml, day 14) was 44%. For the same substance, the “% spots with score 3” value ([2]; 3000 μg/ml, day 14) was 12%, the “reduction % vs vehicle” value ([2]; 3000 μg/ml, day 14, p<0.001) was 41% and the “% spots with score 0” value ([2]; 3000 μg/ml, day 21) was 0%. The “% spots with score 1” value ([2]; 3000 μg/ml, day 21) was 14%, the “% spots with score 2” value ([2]; 3000 μg/ml, day 21) was 47% and the “% spots with score 3” value ([2]; 3000 μg/ml, day 21) was 40%. For the same substance, the “reduction % vs vehicle” value ([2]; 3000 μg/ml, day 21) was -5%, the “general behaviour of animals” value ([2]; both doses IVT) was “변화되지 않는다” and the “clinical score, mean ± SEM (n=20)” value ([3]; 20 μg/eye subconj., day of induction, 24 h after LPS, vehicle 4.0 ± 0.2) was 2.8 ± 0.2. The “clinical score, mean ± SEM (n=20)” value [3, 6] was 1.6 ± 0.1, the “clinical score, median” value [3, 6] was 1.5 and the “leukocytes in aqueous humor, mean ± SEM (n=20)” value (“leukocytes … mean ± SEM (n=20)” for short) [3, 6] was 1668 ± 149 세포/μL. For the same substance, the “leukocytes in aqueous humor, median” value [3, 6] was 1540 세포/μL, the “reduction of clinical score” value [3, 6] was 60% and the “reduction of leukocyte infiltration” value [3, 6] was 48%. For the same substance, the “clinical score, mean ± SEM (n=20)” value [3, 7] was 1.8 ± 0.2, the “clinical score, median” value [3, 7] was 2.0 and the “leukocytes … mean ± SEM (n=20)” value [3, 7] was 1844 ± 232 세포/μL. For the same substance, the “leukocytes in aqueous humor, median” value [3, 7] was 1500 세포/μL, the “reduction of clinical score” value [3, 7] was 55% and the “reduction of leukocyte infiltration” value [3, 7] was 43%. For the same substance, the “clinical score, mean ± SEM (n=20)” value [3, 8] was 3.3 ± 0.2, the “clinical score, median” value [3, 8] was 3.0 and the “leukocytes … mean ± SEM (n=20)” value [3, 8] was 2878 ± 331 세포/μL. For the same substance, the “leukocytes in aqueous humor, median” value [3, 8] was 2473 세포/μL, the “reduction of clinical score” value [3, 8] was 18% and the “reduction of leukocyte infiltration” value [3, 8] was 11%. For the same substance, the “clinical score, mean ± SEM (n=20)” value [3, 9] was 2.9 ± 0.2, the “clinical score, median” value [3, 9] was 3.0 and the “leukocytes … mean ± SEM (n=20)” value [3, 9] was 976 ± 143 세포/μL. The “leukocytes in aqueous humor, median” value [3, 9] was 648 세포/μL, the “reduction of clinical score” value [3, 9] was 28% and the “reduction of leukocyte infiltration” value [3, 9] was 70%. The “clinical score, mean ± SEM (n=20)” value [3, 10] was 3.1 ±0.3, the “clinical score, median” value [3, 10] was 3.0 and the “leukocytes … mean ± SEM (n=20)” value [3, 10] was 1029 ± 164 세포/μL. For the same substance, the “leukocytes in aqueous humor, median” value [3, 10] was 1023 세포/μL, the “reduction of clinical score” value [3, 10] was 23% and the “reduction of leukocyte infiltration” value [3, 10] was 68%. The “clinical score, mean ± SEM (n=20)” value [3, 11] was 3.3 ± 0.2, the “clinical score, median” value [3, 11] was 4.0 and the “leukocytes … mean ± SEM (n=20)” value [3, 11] was 1260 ± 263 세포/μL. For the same substance, the “leukocytes in aqueous humor, median” value [3, 11] was 915 세포/μL, the “reduction of clinical score” value [3, 11] was 18% and the “reduction of leukocyte infiltration” value [3, 11] was 61%. The “clinical score, median” value ([3]; 20 μg/eye, day of induction) was 3.0, the “leukocytes in aqueous humor, median” value ([3]; 20 μg/eye, day of induction) was 2005 세포/μL and the “reduction of clinical score” value ([3]; 20 μg/eye, day of induction) was 30%. The “reduction of leukocyte infiltration” value ([3]; 20 μg/eye, day of induction) was 31%, the “leukocytes … mean ± SEM (n=20)” value ([3]; 20 μg/eye, day of induction, vehicle 3236 ± 346) was 2226 ± 192 세포/μL and the “LPS-induced TNFa, IL-6, MCP-1 release” value [4] was “사이토카인 방출을 억제한다”. For the same substance, the “presence in choroid, bulbar conjunctiva, iris-ciliary body” value ([5]; 7 days after administration) was “여전히 존재함” and the detection in plasma ([5]; rabbit, in vivo) was “항상 검출되지 않았다”.
